Columns and labels:
Type in all cases: cell-based
[1] = test system: CCRF-CEM; experiment: NCI 60 antitumor screening (single dose / five doses); conditions: Homo sapiens; CCRF-CEM (leukaemia), single dose 10 μM; read-out: Growth inhibition percentage (GI %)
[2] = test system: K-562; experiment: as above; conditions: Homo sapiens, K562; K-562 (leukaemia), single dose 10 μM; read-out: Growth inhibition percentage (GI %)
[3] = test system: CAKI-1; experiment: NCI 60 antitumor screening (single dose); conditions: Homo sapiens; CAKI-1 (renal cancer), single dose 10 μM; read-out: Growth inhibition percentage (GI %)
Procedure: (§1) Initially, the anticancer effects of target compounds have been assessed at a single (10 μM) dose. The obtained data have been reported as mean-graph of the percent growth (G%) of the treated cancer cells. Percentage growth inhibition (GI%) is calculated (100 − G%) and pronounced in Table 1. […] Target compounds in series (III) with manipulated linkers disclosed lower potency. Superiorly, eight s-triazine derivatives from the three series (6a, 6c, 6d, 7a, 7g, 7i, 7l, and 8b) have shown potent broad-spectrum anticancer activity against most the examined cell lines, whereas most of the remaining triazine derivatives, 20 derivatives, have exerted selective anti-proliferative actions towards certain cancer cell lines (Supplementary).
(§2) The antitumor screening was performed for 60 human cancer cell lines under the protocol of NCI (www.dtp.nci.nih.gov), the Drug Evaluation Branch, Bethesda, MD. All submitted compounds were nominated based on the degree of structural diversity and computer modelling techniques for evaluation of their anticancer activity. The screening process for antineoplastic activity passes through two successive levels, starting with the assessment of target compounds at a single dose of 10 μM against 60 cancer cell lines on nine types of human tumours. These experiments were done on a triplicate following. The output from the single‐dose screening was covered as a mean graph, and then, analysed by the COMPARE program. Finally, the compounds which disclosed subpanel cancer cell growth (G %) equal to or less than 10% in at least eight cancer cell lines get to pass the assessment against the 60 cell lines at five doses (0.01–100 μM). By using GraphPad Prism version 9.0 (Graphpad Software Inc., La Jolla, CA), GI50, TGI, as well as LC50 dose‐response parameters were computed and presented for each compound (Supplementary information)[55–57].

[4] = test system: NCI-H322M; experiment: NCI 60 antitumor screening (single dose); conditions: Homo sapiens; NCI-H322M (non-small cell lung cancer), single dose 10 μM; read-out: Growth inhibition percentage (GI %)
Procedure: as §1, §2

[5] = test system: OVCAR-8; experiment: NCI 60 antitumor screening (single dose); conditions: Homo sapiens; OVCAR-8 (ovarian cancer), single dose 10 μM; read-out: Growth inhibition percentage (GI %)
Procedure: as §1, §2

[6] = test system: HS 578T; experiment: NCI 60 antitumor screening (single dose); conditions: Homo sapiens; HS 578T (breast cancer), single dose 10 μM; read-out: Growth inhibition percentage (GI %)
Procedure: as §1, §2

[7] = test system: NCI-H460; experiment: NCI 60 antitumor screening (single dose); conditions: Homo sapiens; NCI-H460 (non-small cell lung cancer), single dose 10 μM; read-out: Growth inhibition percentage (GI %)
Procedure: as §1, §2

[8] = test system: NCI-H522; experiment: NCI 60 antitumor screening (single dose); conditions: Homo sapiens; NCI-H522 (non-small cell lung cancer), single dose 10 μM; read-out: Growth inhibition percentage (GI %)
Procedure: as §1, §2

[9] = test system: KM 12; experiment: NCI 60 antitumor screening (single dose); conditions: Homo sapiens, KM12; KM 12 (colon cancer), single dose 10 μM; read-out: Growth inhibition percentage (GI %)
Procedure: as §1, §2

[10] = test system: U251; experiment: NCI 60 antitumor screening (single dose); conditions: Homo sapiens, U-251; U251 (CNS cancer), single dose 10 μM; read-out: Growth inhibition percentage (GI %)
Procedure: as §1, §2

[11] = test system: HCC-2998; experiment: NCI 60 antitumor screening (single dose); conditions: Homo sapiens; HCC-2998 (colon cancer), single dose 10 μM; read-out: Growth inhibition percentage (GI %)
Procedure: as §1, §2

[12] = test system: PC-3; experiment: NCI 60 antitumor screening (single dose); conditions: Homo sapiens; PC-3 (prostate cancer), single dose 10 μM; read-out: Growth inhibition percentage (GI %)
Procedure: as §1, §2

[13] = test system: NCI-H226; experiment: NCI 60 antitumor screening (single dose); conditions: Homo sapiens; NCI-H226 (non-small cell lung cancer), single dose 10 μM; read-out: Growth inhibition percentage (GI %)
Procedure: as §1, §2

[14] = test system: SNB-19; experiment: NCI 60 antitumor screening (single dose); conditions: Homo sapiens; SNB-19 (CNS cancer), single dose 10 μM; read-out: Growth inhibition percentage (GI %)
Procedure: as §1, §2

[15] = test system: A549/ATCC; experiment: NCI 60 antitumor screening (single dose); conditions: Homo sapiens; A549/ATCC (non-small cell lung cancer), single dose 10 μM; read-out: Growth inhibition percentage (GI %)
Procedure: as §1, §2

[16] = test system: HOP-62; experiment: NCI 60 antitumor screening (single dose); conditions: Homo sapiens; HOP-62 (non-small cell lung cancer), single dose 10 μM; read-out: Growth inhibition percentage (GI %)
Procedure: as §1, §2

[17] = test system: TK-10; experiment: NCI 60 antitumor screening (single dose); conditions: Homo sapiens; TK-10 (renal cancer), single dose 10 μM; read-out: Growth inhibition percentage (GI %)
Procedure: as §1, §2

[18] = test system: OVCAR-5; experiment: NCI 60 antitumor screening (single dose); conditions: Homo sapiens; OVCAR-5 (ovarian cancer), single dose 10 μM; read-out: Growth inhibition percentage (GI %)
Procedure: as §1, §2

[19] = test system: SF-268; experiment: NCI 60 antitumor screening (single dose); conditions: Homo sapiens; SF-268 (CNS cancer), single dose 10 μM; read-out: Growth inhibition percentage (GI %)
Procedure: as §1, §2

[20] = test system: OVCAR-3; experiment: NCI 60 antitumor screening (single dose); conditions: Homo sapiens; OVCAR-3 (ovarian cancer), single dose 10 μM; read-out: Growth inhibition percentage (GI %)
Procedure: as §1, §2

[21] = test system: MCF7; experiment: NCI 60 antitumor screening (single dose); conditions: Homo sapiens; MCF7 (breast cancer), single dose 10 μM; read-out: Growth inhibition percentage (GI %)
Procedure: as §1, §2

[22] = test system: RPMI-8226; experiment: NCI 60 antitumor screening (single dose / five doses); conditions: Homo sapiens; RPMI-8226 (leukaemia), single dose 10 μM; read-out: Growth inhibition percentage (GI %)
[23] = test system: ACHN; experiment: as above; conditions: Homo sapiens; ACHN (renal cancer), single dose 10 μM; read-out: Growth inhibition percentage (GI %)
[24] = test system: SF-539; experiment: as above; conditions: Homo sapiens; SF-539 (CNS cancer), single dose 10 μM; read-out: Growth inhibition percentage (GI %)
[25] = test system: UACC-257; experiment: as above; conditions: Homo sapiens; UACC-257 (melanoma), single dose 10 μM; read-out: Growth inhibition percentage (GI %)
[26] = test system: MALME-3M; experiment: as above; conditions: Homo sapiens; MALME-3M (melanoma), single dose 10 μM; read-out: Growth inhibition percentage (GI %)

| SMILES | inhibition at 10 µM [1] [%] | inhibition at 10 µM [2] [%] | inhibition at 10 µM [3] [%] | inhibition at 10 µM [4] [%] | inhibition at 10 µM [5] [%] | inhibition at 10 µM [6] [%] | inhibition at 10 µM [7] [%] | inhibition at 10 µM [8] [%] | inhibition at 10 µM [9] [%] | inhibition at 10 µM [10] [%] | inhibition at 10 µM [11] [%] | inhibition at 10 µM [12] [%] | inhibition at 10 µM [13] [%] | inhibition at 10 µM [14] [%] | inhibition at 10 µM [15] [%] | inhibition at 10 µM [16] [%] | inhibition at 10 µM [17] [%] | inhibition at 10 µM [18] [%] | inhibition at 10 µM [19] [%] | inhibition at 10 µM [20] [%] | further results |
| --- | --- | --- | --- | --- | --- | --- | --- | --- | --- | --- | --- | --- | --- | --- | --- | --- | --- | --- | --- | --- | --- |
| Brc1ccccc1/C=N/Nc1nc(N/N=C/c2ccccc2Br)nc(N2CCOCC2)n1 [compound 6b, 2,4-Bis[(E)-2-[(2-bromophenyl)methylidene]hydrazin-1-yl]-6-(morpholin-4-yl)-1,3,5-triazine] | 19.9 | 5.94 | -8.66 | 3.22 | 3.39 | -14.4 | -2.92 | 13.4 | 10.9 | 3.53 | 29.1 | 16 | 4.87 | -1.04 | 2.89 | -8.36 | 0.58 | -11.2 | -2.5 | 14.8 | inhibition at 10 µM [21]: 14.8%; inhibition at 10 µM [22]: 35%; inhibition at 10 µM [23]: 6.36%; inhibition at 10 µM [24]: -4.64%; inhibition at 10 µM [25]: -3.93%; inhibition at 10 µM [26]: -42.9% |
| Brc1cccc(/C=N/Nc2nc(N/N=C/c3cccc(Br)c3)nc(N3CCCCC3)n2)c1 [compound 7c, 2,4-Bis[(E)-2-[(3-Bromophenyl)methylidene]hydrazin-1-yl]-6-(piperidin-1-yl)-1,3,5-triazine] | 18.7 | 11.2 | 0.79 | -3.53 | 2.62 | -21.2 | -2.41 | 8.55 | -6.72 | 3.1 | -2.01 | 19.8 | 8.12 | -2.24 | 10.6 | -8.46 | -27.6 | -15.9 | -5.8 | 0.95 | inhibition at 10 µM [21]: 20.2%; inhibition at 10 µM [22]: 11.8%; inhibition at 10 µM [23]: -5.5%; inhibition at 10 µM [24]: -6.24%; inhibition at 10 µM [25]: -4.98%; inhibition at 10 µM [26]: 15.1% |
| Fc1cccc(/C=N/Nc2nc(N/N=C/c3cccc(F)c3)nc(N3CCCCC3)n2)c1 [compound 7e, 2,4-Bis[(E)-2-[(3-Fluorophenyl)methylidene]hydrazin-1-yl]-6-(piperidin-1-yl)-1,3,5-triazine] | 41.3 | 38.6 | 9.66 | -8.36 | 14.6 | -13.2 | 8.63 | 8.08 | 17.9 | 5.46 | 0.77 | 31.4 | 17.9 | 3.96 | 10.6 | -7.48 | -20.6 | -8.1 | 0.36 | 10.6 | inhibition at 10 µM [21]: 26.7%; inhibition at 10 µM [22]: 38.8%; inhibition at 10 µM [23]: 8.6%; inhibition at 10 µM [24]: -3.16%; inhibition at 10 µM [25]: -0.08%; inhibition at 10 µM [26]: -0.5% |
| COC(=O)C(Cc1ccccc1)Nc1nc(NC(Cc2ccccc2)C(=O)OC)nc(N2CCOCC2)n1 (centres unmarked) [compound 8c, Methyl 2-({4-[(1-methoxy-1-oxo-3-phenylpropan-2-yl)amino]-6-(morpholin-4-yl)-1,3,5-triazin-2-yl}amino)-3-phenylpropanoate] | -4.54 | 8.42 | 13.2 | 2.57 | 0.4 | -1.3 | -6.88 | 9.02 | 0.3 | -5.23 | -9.86 | -2.72 | -1.61 | -3.58 | -8.33 | 2.66 | -3.4 | -6.25 | -2.56 | -11.1 | inhibition at 10 µM [21]: 2.21%; inhibition at 10 µM [22]: 1.47%; inhibition at 10 µM [23]: -8.95%; inhibition at 10 µM [24]: 1.99%; inhibition at 10 µM [25]: -3.35%; inhibition at 10 µM [26]: -4.87% |

Reference: publication PMC9848300, “Discovery of novel enasidenib analogues targeting inhibition of mutant isocitrate dehydrogenase 2 as antileukaemic agents” (Journal of Enzyme Inhibition and Medicinal Chemistry, 2023)
